Measured values reported in patent US20240293490A1, “CHRYSANTHEMUM ZAWADSKII EXTRACT AND PREPARING METHOD THEREOF” (GREEN CROSS WELLBEING CORPORATION, priority 2023, published 2024).
Values joined by “and” are separate entries in the source; they are usually repeats but may differ in a detail not shown here. Equal values may be shown once.

How the values were obtained:
male ICR mice [1] = assay: Hot plate test, analgesic efficacy (central nervous system); assay type: in vivo, mouse; settings: G2, 60 mg/kg oral
Protocol: The experimental method used in this example is an analgesic efficacy experiment method using a hot plate test described in the “Guidelines for efficacy test of herbal preparations—General efficacy tests for painful diseases” announced by the Ministry of Food and Drug Safety, wherein the analgesic effect in the central nervous system of a mouse is measured with a response time to a heat stimulus as an index through a hot plate. At this time, the response time to the heat stimulus is measured as a time elapsed until the experimental animal licks the paw or jumps.
(§1) 1) Celebrex (Celecoxib, Pfizer, 200 mg), Saline (Chungwae Pharmaceutical), Chrysanthemum extract (Green Cross HS) and male ICR mice (6 weeks old, weight 30-35 g, Orient Bio) were prepared. In this example, the Chrysanthemum extract was extracted by the organic solvent extraction method described in the above preparative example wherein it was extracted using 70% ethanol.
(§2) 2) 60 mg/kg of Celebrex and 50, 100 and 200 mg/kg of Chrysanthemum extracts were prepared and orally administered to ICR mice, respectively. At this time, Celebrex is converted into administration concentration and suspended in saline while vortexing, and Chrysanthemum extract is suspended in 0.5% CMC and sonicated at 20 to 25° C. for about 10 minutes.
According to the efficacy experimental method using the hot plate test method, as the experimental animals, 5-week-old male ICR mice were purchased, acclimatized for 1 week, and then tested. The hot plate was maintained at 55° C., and drug administration was performed 30 minutes before this method. The central pain response due to heat was measured with an index, i.e., the time elapsed until the mouse licks the hind paw or jumps starting from contacting with the hot plate.
Then, the pain response due to heat was measured with an index, i.e., the time elapsed until the mouse licks the hind paw or jumps starting from contacting with the hot plate.

male ICR mice [2] = assay: Acetic acid writhing test, analgesic efficacy (peripheral nerves); assay type: in vivo, mouse; settings: G2, 60 mg/kg oral
Protocol: The experimental method used in this example is the “Acetic acid writhing test” described in the “Guidelines for efficacy test of herbal preparations—General efficacy tests for painful diseases” announced by the Ministry of Food and Drug Safety, wherein acetic acid is administered intraperitoneally to cause damage of capillaries and pain in the abdominal cavity, and the analgesic effect in peripheral nerves is measured using the abdominal contractile response as an index.
as §1, with “mg), acetic acid (Daejunghwageum),” for “mg),”, “(5” for “(6”, “old,” for “old, weight 30-35 g,”
as §2, with “mice.” for “mice, respectively.”
For the experimental method for analgesic effects to the acetic acid writhing test, as the experimental animals, 4-week-old male ICR mice were purchased, acclimatized for 1 week, and then tested. The Chrysanthemum extract and control drug, respectively, were orally administered to mice by dose, followed by intraperitoneal injection of acetic acid (0.7% acetic acid-physiological saline (0.1 ml/10 g B.W.)) 30 minutes after administration. Subsequently, from 5 minutes after injection, the number of occurrences of writhing was measured for 10 minutes (FIG. 3).
Subsequently, from 5 minutes after the intraperitoneal administration, the number of occurrences of writhing syndrome was counted for 10 minutes and results thereof are shown in FIG. 10 and Table 14.

Cc1ccc(-c2cc(C(F)(F)F)nn2-c2ccc(S(N)(=O)=O)cc2)cc1 [Celecoxib]
Response time, % of control (increase rate) (male ICR mice [1]): 53.9%
Response time, individual mouse (male ICR mice [1]; hot plate 55° C., mice 1-8): 26.94 s and 27.82 s and 35.55 s and 36.22 s and 28.54 s and 33.71 s and 32.71 s and 25.61 s
Response time, mean (male ICR mice [1]; n=8, control mean 20.07): 30.89 s
Writhing syndrome/10 min, individual mouse (male ICR mice [2]; 0.7% acetic acid i.p. 30 minutes after administration, mice 1-6): 9.00 /10 min and 6.00 /10 min and 15.00 /10 min and 14.00 /10 min and 25.00 /10 min and 18.00 /10 min
Writhing syndrome/10 min, mean (male ICR mice [2]; n=6, control mean 28.33): 14.50 /10 min
inhibition at 60 mg/kg (male ICR mice [2]; Mus musculus, read-out: Writhing syndrome, % of control (inhibition rate, reduction compared to control)): 48.9%
